Results taken from paper doi:10.1101/2023.11.24.568596v1 (biorxiv, 2023).
One block for each compound: values may come before it.

Legend:
Conditions in all cases: binder
CHK2 = CHK2 (Homo sapiens, UniProt O96017)
DCAMKL1 = biological target: T1, DCAMKL1 (Homo sapiens, UniProt O15075)
T1 sequence (O15075 1-740): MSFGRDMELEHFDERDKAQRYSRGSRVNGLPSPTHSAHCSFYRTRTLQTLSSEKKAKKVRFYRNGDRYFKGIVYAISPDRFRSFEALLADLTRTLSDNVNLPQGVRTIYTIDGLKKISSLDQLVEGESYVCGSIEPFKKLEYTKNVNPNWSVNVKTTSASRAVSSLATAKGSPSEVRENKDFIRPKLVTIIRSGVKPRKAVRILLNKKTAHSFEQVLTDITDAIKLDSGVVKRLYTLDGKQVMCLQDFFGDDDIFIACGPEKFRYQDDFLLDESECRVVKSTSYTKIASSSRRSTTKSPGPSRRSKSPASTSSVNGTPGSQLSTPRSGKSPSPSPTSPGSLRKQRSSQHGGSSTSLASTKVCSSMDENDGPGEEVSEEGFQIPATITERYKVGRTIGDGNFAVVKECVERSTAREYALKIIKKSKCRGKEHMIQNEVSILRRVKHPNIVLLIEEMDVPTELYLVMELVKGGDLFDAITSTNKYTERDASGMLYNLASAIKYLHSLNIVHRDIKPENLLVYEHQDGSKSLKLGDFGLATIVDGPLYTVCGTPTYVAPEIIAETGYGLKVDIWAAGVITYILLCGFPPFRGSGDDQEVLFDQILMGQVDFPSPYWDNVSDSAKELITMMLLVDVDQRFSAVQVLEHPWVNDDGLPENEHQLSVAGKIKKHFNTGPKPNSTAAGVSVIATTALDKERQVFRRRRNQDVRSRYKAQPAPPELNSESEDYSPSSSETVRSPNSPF

SRPK1 = SRPK1 (Homo sapiens, UniProt Q96SB4)
Sequence of SRPK1 (Q96SB4 whole entry): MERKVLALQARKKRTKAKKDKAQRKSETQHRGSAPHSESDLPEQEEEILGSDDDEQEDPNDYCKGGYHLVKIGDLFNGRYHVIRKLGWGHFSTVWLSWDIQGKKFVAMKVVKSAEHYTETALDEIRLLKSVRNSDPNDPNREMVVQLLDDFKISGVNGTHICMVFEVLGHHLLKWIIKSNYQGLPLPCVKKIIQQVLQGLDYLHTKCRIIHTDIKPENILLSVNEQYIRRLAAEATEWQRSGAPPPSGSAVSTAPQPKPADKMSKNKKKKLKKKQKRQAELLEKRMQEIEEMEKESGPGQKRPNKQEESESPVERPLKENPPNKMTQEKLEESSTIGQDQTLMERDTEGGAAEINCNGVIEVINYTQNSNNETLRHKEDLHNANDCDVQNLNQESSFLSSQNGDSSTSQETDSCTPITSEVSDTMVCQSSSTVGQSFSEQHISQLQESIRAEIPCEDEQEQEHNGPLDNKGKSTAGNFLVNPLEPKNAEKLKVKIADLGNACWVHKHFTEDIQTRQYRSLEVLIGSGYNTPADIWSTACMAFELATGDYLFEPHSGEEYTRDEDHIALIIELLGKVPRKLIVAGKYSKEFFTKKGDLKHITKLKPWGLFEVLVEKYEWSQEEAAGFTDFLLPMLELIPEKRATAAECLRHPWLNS

MYT1 = biological target: T2, MYT1 (Homo sapiens, UniProt Q99640)
T2 sequence (Q99640 1-499): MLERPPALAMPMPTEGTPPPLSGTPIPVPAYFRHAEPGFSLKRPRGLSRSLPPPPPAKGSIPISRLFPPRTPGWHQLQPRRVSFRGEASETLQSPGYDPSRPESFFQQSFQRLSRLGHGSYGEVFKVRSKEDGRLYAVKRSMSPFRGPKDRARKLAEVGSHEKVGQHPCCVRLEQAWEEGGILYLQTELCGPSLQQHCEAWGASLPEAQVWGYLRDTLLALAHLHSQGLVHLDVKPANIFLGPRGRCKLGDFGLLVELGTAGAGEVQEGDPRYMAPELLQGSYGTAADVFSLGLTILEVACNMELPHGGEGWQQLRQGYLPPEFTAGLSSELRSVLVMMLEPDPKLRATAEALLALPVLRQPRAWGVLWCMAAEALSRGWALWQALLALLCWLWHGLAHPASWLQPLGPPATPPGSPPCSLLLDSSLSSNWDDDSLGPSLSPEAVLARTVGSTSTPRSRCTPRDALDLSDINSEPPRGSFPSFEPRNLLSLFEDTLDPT

GAK = biological target: T3, GAK (Homo sapiens, UniProt O14976)
T3 sequence (O14976 1-1311): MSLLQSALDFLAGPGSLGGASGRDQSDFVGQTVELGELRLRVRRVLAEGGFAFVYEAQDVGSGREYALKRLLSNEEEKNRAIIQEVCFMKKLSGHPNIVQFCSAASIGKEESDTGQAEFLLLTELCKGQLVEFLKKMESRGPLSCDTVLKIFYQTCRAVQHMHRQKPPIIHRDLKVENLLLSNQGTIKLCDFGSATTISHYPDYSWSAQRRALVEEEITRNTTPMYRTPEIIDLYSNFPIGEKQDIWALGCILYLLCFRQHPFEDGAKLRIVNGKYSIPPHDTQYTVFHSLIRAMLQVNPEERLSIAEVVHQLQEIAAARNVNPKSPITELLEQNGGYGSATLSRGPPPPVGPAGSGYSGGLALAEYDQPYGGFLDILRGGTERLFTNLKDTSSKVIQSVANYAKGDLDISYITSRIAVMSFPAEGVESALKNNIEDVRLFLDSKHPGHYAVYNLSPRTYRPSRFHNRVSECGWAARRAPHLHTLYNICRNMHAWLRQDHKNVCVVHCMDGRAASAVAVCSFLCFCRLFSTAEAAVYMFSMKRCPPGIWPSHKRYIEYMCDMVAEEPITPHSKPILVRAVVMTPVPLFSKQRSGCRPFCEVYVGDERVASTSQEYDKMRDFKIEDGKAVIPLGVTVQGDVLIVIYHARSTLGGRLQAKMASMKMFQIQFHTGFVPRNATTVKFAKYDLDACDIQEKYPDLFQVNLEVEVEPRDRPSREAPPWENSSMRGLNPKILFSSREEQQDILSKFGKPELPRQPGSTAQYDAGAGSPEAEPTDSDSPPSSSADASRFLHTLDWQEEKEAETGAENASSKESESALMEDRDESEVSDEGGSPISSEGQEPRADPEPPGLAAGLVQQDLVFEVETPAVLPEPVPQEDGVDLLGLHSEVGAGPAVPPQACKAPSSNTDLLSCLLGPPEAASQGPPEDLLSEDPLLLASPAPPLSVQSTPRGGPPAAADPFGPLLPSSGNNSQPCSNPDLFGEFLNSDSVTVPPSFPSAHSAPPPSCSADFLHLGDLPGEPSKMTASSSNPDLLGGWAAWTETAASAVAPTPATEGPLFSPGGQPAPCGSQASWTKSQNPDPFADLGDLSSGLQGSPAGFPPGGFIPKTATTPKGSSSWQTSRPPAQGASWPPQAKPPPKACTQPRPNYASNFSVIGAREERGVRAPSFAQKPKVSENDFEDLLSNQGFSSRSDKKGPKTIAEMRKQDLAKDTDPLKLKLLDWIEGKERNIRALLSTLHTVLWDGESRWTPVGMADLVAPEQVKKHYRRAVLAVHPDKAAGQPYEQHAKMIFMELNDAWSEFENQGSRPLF

CaMKK2 = CaMKK2 (Homo sapiens, UniProt Q96RR4)
Sequence of CaMKK2 (Q96RR4 whole entry): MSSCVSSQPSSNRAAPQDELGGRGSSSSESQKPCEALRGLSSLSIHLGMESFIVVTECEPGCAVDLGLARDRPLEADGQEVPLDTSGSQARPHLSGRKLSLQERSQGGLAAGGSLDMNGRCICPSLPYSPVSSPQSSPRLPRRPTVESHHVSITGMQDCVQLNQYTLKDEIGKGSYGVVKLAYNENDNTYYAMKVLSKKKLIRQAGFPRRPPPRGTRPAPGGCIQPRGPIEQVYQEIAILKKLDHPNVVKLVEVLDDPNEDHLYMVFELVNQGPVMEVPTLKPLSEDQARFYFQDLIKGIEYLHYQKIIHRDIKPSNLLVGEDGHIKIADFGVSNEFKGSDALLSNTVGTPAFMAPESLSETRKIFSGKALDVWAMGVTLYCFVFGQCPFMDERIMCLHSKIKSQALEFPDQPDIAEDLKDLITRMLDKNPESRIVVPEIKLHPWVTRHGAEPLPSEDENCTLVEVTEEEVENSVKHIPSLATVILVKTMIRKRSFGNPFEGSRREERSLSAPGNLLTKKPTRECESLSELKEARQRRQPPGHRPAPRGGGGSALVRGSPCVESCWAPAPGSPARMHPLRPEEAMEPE

MSSK1 = MSSK1 (Homo sapiens, UniProt Q9UPE1)
Sequence of MSSK1 (Q9UPE1 whole entry): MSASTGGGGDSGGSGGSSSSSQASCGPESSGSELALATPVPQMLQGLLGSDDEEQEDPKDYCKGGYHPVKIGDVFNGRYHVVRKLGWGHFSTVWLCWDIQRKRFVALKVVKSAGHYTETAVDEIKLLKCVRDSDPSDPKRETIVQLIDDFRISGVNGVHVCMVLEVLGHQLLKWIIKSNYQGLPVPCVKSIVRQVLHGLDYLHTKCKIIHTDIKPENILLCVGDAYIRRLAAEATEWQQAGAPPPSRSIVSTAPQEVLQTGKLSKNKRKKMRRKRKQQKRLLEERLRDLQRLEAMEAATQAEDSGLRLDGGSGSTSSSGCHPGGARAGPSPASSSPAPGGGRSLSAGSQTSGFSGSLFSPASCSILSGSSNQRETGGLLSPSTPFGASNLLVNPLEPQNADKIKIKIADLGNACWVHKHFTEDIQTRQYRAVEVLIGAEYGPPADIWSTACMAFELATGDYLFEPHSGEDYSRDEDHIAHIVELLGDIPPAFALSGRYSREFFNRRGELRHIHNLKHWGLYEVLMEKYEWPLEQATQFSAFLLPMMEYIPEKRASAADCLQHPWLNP

Sequence of CHK2 (O96017 whole entry): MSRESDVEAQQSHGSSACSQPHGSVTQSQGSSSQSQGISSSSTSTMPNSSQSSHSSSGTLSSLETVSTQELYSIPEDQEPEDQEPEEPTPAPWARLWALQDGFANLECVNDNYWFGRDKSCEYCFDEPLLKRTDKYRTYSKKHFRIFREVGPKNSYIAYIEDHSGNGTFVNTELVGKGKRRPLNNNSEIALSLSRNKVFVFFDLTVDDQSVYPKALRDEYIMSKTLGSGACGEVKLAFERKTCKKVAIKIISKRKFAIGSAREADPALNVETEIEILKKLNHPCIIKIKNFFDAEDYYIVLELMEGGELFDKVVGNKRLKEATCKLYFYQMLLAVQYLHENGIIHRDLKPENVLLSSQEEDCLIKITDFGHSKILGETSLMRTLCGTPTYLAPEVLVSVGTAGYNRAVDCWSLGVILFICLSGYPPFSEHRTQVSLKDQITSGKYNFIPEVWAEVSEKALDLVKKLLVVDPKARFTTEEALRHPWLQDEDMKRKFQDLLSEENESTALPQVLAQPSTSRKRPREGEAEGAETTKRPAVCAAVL

dTm 33 (CHK2): 10.4 °C
dTm 33 (DCAMKL1): 1.2 °C
dTm 33 (SRPK1): -0.2 °C
dTm 33 (MYT1): -1.8 °C
dTm 33 (GAK): 12.5 °C
dTm 33 (CaMKK2): 4.3 °C
dTm 33 (MSSK1): -0.4 °C
SMILES: Cc1cccc(-c2ccc(-c3cc4cnc(Nc5ccc(F)c(CO)c5)nc4n(CCCCN)c3=O)c(Cl)c2)n1 [compound 33, 8-(4-Aminobutyl)-6-(2-chloro-4-(6-methylpyridin-2-yl)phenyl)-2-((4-fluoro-3-(hydroxymethyl)phenyl)amino)pyrido[2,3-d]pyrimidin-7(8H)-one]

dTm 34 (CHK2): 6.4 °C
dTm 34 (DCAMKL1): -0.3 °C
dTm 34 (SRPK1): 0.1 °C
dTm 34 (MYT1): -2.7 °C
dTm 34 (GAK): 9.3 °C
dTm 34 (CaMKK2): 4.3 °C
dTm 34 (MSSK1): 0.4 °C
SMILES: COc1ccc(O)c(Nc2ncc3cc(-c4ccc(-c5cccc(C)n5)cc4Cl)c(=O)n(CCCCN)c3n2)c1 [compound 34, 8-(4-Aminobutyl)-6-(2-chloro-4-(6-methylpyridin-2-yl)phenyl)-2-((2-hydroxy-5-methoxy-phenyl)amino)pyrido[2,3-d]pyrimidin-7(8H)-one]

dTm 35 (CHK2): 13.0 °C
dTm 35 (DCAMKL1): 2.0 °C
dTm 35 (SRPK1): -0.5 °C
dTm 35 (MYT1): -3.5 °C
dTm 35 (GAK): 13.5 °C
dTm 35 (CaMKK2): 6.9 °C
dTm 35 (MSSK1): -0.2 °C
SMILES: COc1cc(N2CCOCC2)ccc1Nc1ncc2cc(-c3ccc(-c4cccc(C)n4)cc3Cl)c(=O)n(CCCCN)c2n1 [compound 35, 8-(4-Aminobutyl)-6-(2-chloro-4-(6-methylpyridin-2-yl)phenyl)-2-((2-methoxy-4-morpholino-phenyl)amino)pyrido[2,3-d]pyrimidin-7(8H)-one]

dTm 36 (CHK2): 12.6 °C
dTm 36 (DCAMKL1): 1.3 °C
dTm 36 (SRPK1): 0.0 °C
dTm 36 (MYT1): -2.8 °C
dTm 36 (GAK): 11.7 °C
dTm 36 (CaMKK2): 5.8 °C
dTm 36 (MSSK1): 0.0 °C
SMILES: COc1cc(N2CCN(C)CC2)ccc1Nc1ncc2cc(-c3ccc(-c4cccc(C)n4)cc3Cl)c(=O)n(CCCCN)c2n1 [compound 36, 8-(4-Aminobutyl)-6-(2-chloro-4-(6-methylpyridin-2-yl)phenyl)-2-((2-methoxy-4-(4-methylpiperazin-1-yl)phenyl)amino)pyrido[2,3-d]pyrimidin-7(8H)-one]
